Measurements from patent publication US12016862B2, “Methods and compositions comprising a KRasG12C inhibitor and a VEGF inhibitor for treating solid tumors” (Genentech, Inc., priority 2020, dated 2024).
“And” between values parts separate entries of the source, which are not always exact repeats. Equal entries are not always repeated. Where two headings read alike, the source gives them in different places.

How the values were obtained:
[1] = bevacizumab; cited from earlier work
[2] = Risks associated with administration of study drugs; format: in vivo; conditions: Compound 1
Text: Risks Associated with Compound 1.
Risks Associated with Bevacizumab.

[3] = test system: NCI-H2122 (KRAS^G12C) NSCLC xenograft; experiment: Anti-tumor efficacy in NCI-H2122 NSCLC xenograft tumor model; format: in vivo, nude mice
Method: Anti-VEGFA 620.4.1.1 (Mu anti-VEGFA 620.4.1.1; hereafter referred to as anti-VEGF) was a solution in Histidine Buffer ([…], 0.02% Tween 20™, pH5.5). […] The anti-gD isotype control (Hu anti-gD 5B6; hereafter referred to as Isotype Control) was a solution in saline. […] The mice were housed in standard rodent micro-isolator cages and were acclimated to study conditions at least 3 days before tumor cell implantation. Only animals that appeared to be healthy and that were free of obvious abnormalities were used for the study. Human non-small lung carcinoma NCI-H2122 cells were obtained from the American Type Culture Collection (Rockville, MD) and harbor a G12C oncogenic mutation in K-RAS. […] Mice were distributed into four groups based on tumor volumes with n=10 mice per group. […] The isotope control and anti-VEGF antibodies were administered intravenously (IV) at 10 mg/kg for the first dose, and then dosed intraperitoneally (IP) at 5 mg/kg for subsequent doses on a twice weekly (BIW) schedule. Tumor sizes and mouse body weights were recorded twice weekly over the course of the study. […] Fred V. Fowler Co.; Newton, MA) and analyzed using Excel, version 14.2.5 (Microsoft Corporation; Redmond WA). […] A generalized additive mixed model (GAMM) was employed to analyze transformed tumor volumes over time as this approach addresses both repeated measurements from the same study subjects and modest dropouts before study end (Lin et al. Wiley Online Library; 1999; 61:381-400 and Liang Biometrical Journal. Wiley Online Library; 2005; 47:358-68). […] Estimates of efficacy were obtained by calculating the percent difference between the daily average baseline-corrected AUC of the relevant group fits on the original (i.e., untransformed) scale over a common time period.

[4] = test system: KRAS^G12C-positive cancer cell lines; experiment: Growth inhibition of KRAS^G12C-positive versus KRAS^G12C-negative cancer cell lines; format: cell-based
[5] = number of mice of n=10, same dosing, 21 days

Compound	risks associated with administration [1]	risks associated with administration [2]	% TGI (estimated) ([3]; NCI-H2122 xenografts in nude mice, n=10, Compound 1 50 mg/kg PO QD, anti-VEGF 10 mg/kg IV first dose then 5 mg/kg IP BIW, 21 days, based on AUC, relative to vehicle controls)	mice showing reductions in initial tumor size ([3]; initial tumor response, n=10 per group)	TI (tumor incidence) ([3]; n=10 per group, same dosing, 21 days)	CR (complete responses, 100% decrease in tumor volume) [3, 5]	PR (partial responses, >50% decrease from the initial tumor volume) [3, 5]	anti-tumor effect in words ([3]; single agent treatment)	mice showing increases in tumor volume ([3]; within the first week of treatment, of 10 mice)	selectivity in growth inhibition for KRAS^G12C-positive over KRAS^G12C-negative cancer cell lines [4]
Bevacizumab: recombinant humanized anti-VEGF monoclonal antibody generated according to Presta et al.	gastrointestinal perforations, surgery and wound healing complications, hemorrhage									
C=CC(=O)N1CCN(c2nc(OC[C@@H]3CCCN3C)nc3c(F)c(-c4nc(N)cc(C)c4C(F)(F)F)c(Cl)cc23)[C@@H](C)C1 (atropisomer, axis not shown) [Compound 1]		diarrhea, nausea, vomiting, oral mucosal irritation, minimal to mild transaminase elevation, and phototoxicity	98%	50%	10/10	0	2/10 and 2	tumor stasis	5/10	over 20,000 fold
